Experimental data from PubChem BioAssay (NCI).
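Protocol summary: plate cells (96-well), add compound at 5 concentrations, incubate 48 h, interpolate endpoints linearly. GI50: concentration for 50% inhibition of growth. TGI: concentration producing complete growth inhibition.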

Legend:
Test in all cases: NCI tumour cell line growth inhibition, 48 h
M14 melanoma = test system: M14 melanoma
HT29 colon = test system: HT29 colon
SW-620 colon = test system: SW-620 colon
CCRF-CEM leukemia = test system: CCRF-CEM leukemia
OVCAR-5 ovarian = test system: OVCAR-5 ovarian
HOP-92 NSCLC = test system: HOP-92 NSCLC
COLO 205 colon = test system: COLO 205 colon
SF-295 CNS = test system: SF-295 CNS
NCI-H522 lung = test system: NCI-H522 lung
NCI-H23 lung = test system: NCI-H23 lung
ACHN renal = test system: ACHN renal
UACC-62 melanoma = test system: UACC-62 melanoma
SF-539 CNS = test system: SF-539 CNS
HOP-62 NSCLC = test system: HOP-62 NSCLC
LOX IMVI melanoma = test system: LOX IMVI melanoma
HCT-116 colon = test system: HCT-116 colon
HS 578T breast = test system: HS 578T breast
NCI-H460 lung = test system: NCI-H460 lung
UACC-257 melanoma = test system: UACC-257 melanoma
U251 CNS = test system: U251 CNS
MDA-MB-435 = test system: MDA-MB-435
OVCAR-8 ovarian = test system: OVCAR-8 ovarian
SK-MEL-5 melanoma = test system: SK-MEL-5 melanoma
OVCAR-4 ovarian = test system: OVCAR-4 ovarian
KM12 colon = test system: KM12 colon
K-562 leukemia = test system: K-562 leukemia
SF-268 CNS = test system: SF-268 CNS
A498 renal = test system: A498 renal
IGROV1 ovarian = test system: IGROV1 ovarian
A549 NSCLC = test system: A549 NSCLC
DU-145 prostate = test system: DU-145 prostate
RXF 393 renal = test system: RXF 393 renal
786-0 renal = test system: 786-0 renal
UO-31 renal = test system: UO-31 renal
T-47D breast = test system: T-47D breast
HCC-2998 colon = test system: HCC-2998 colon
MCF7 breast = test system: MCF7 breast
TK-10 renal = test system: TK-10 renal
MOLT-4 leukemia = test system: MOLT-4 leukemia
HL-60(TB) leukemia = test system: HL-60(TB) leukemia
PC-3 prostate = test system: PC-3 prostate
SN12C renal = test system: SN12C renal
SK-MEL-2 melanoma = test system: SK-MEL-2 melanoma
CAKI-1 renal = test system: CAKI-1 renal
SNB-19 CNS = test system: SNB-19 CNS
MALME-3M melanoma = test system: MALME-3M melanoma
NCI/ADR-RES ovarian = test system: NCI/ADR-RES ovarian
SK-MEL-28 melanoma = test system: SK-MEL-28 melanoma
OVCAR-3 ovarian = test system: OVCAR-3 ovarian
BT-549 breast = test system: BT-549 breast
NCI-H226 lung = test system: NCI-H226 lung
EKVX NSCLC = test system: EKVX NSCLC
SK-OV-3 ovarian = test system: SK-OV-3 ovarian
HCT-15 colon = test system: HCT-15 colon
SR leukemia = test system: SR leukemia
MDA-MB-231 breast = test system: MDA-MB-231 breast
RPMI-8226 leukemia = test system: RPMI-8226 leukemia

`COc1cc2c(cc1OC)-c1c(c3ccc([N+](=O)[O-])cc3c(=O)n1CCCN)C2=O` showed a GI50 (M14 melanoma) of 0.00971 µM, a TGI (M14 melanoma) of 1.57 µM and a GI50 (HT29 colon) of 0.531 µM. It also gave a TGI (HT29 colon) of 1.12 µM, a GI50 (SW-620 colon) of 0.491 µM and a TGI (SW-620 colon) of 5.92 µM. For the same compound, the GI50 (CCRF-CEM leukemia) was 0.495 µM, the TGI (CCRF-CEM leukemia) was 2.4 µM and the GI50 (OVCAR-5 ovarian) was 3.46 µM. The TGI (OVCAR-5 ovarian) was 9.54 µM, the GI50 (HOP-92 NSCLC) was 7.29 µM and the TGI (HOP-92 NSCLC) was 16.5 µM. For the same compound, the GI50 (COLO 205 colon) was 1.83 µM, the TGI (COLO 205 colon) was 8.85 µM and the GI50 (SF-295 CNS) was 0.0566 µM. It also gave a TGI (SF-295 CNS) of 10.5 µM, a GI50 (NCI-H522 lung) of 0.0615 µM and a TGI (NCI-H522 lung) of 4.22 µM. For the same compound, the GI50 (NCI-H23 lung) was 0.548 µM, the TGI (NCI-H23 lung) was 1.55 µM and the GI50 (ACHN renal) was 0.242 µM. It also gave a TGI (ACHN renal) of 4.04 µM, a GI50 (UACC-62 melanoma) of 1.95 µM and a TGI (UACC-62 melanoma) of 10.8 µM. It also gave a GI50 (SF-539 CNS) of 0.124 µM, a TGI (SF-539 CNS) of 1.29 µM and a GI50 (HOP-62 NSCLC) of 1.28 µM. The TGI (HOP-62 NSCLC) was 8.24 µM, the GI50 (LOX IMVI melanoma) was 0.325 µM and the TGI (LOX IMVI melanoma) was 1.17 µM. For the same compound, the GI50 (HCT-116 colon) was 0.57 µM, the TGI (HCT-116 colon) was 1.46 µM and the GI50 (HS 578T breast) was 9.12 µM. For the same compound, the TGI (HS 578T breast) was 20.2 µM, the GI50 (NCI-H460 lung) was 0.403 µM and the TGI (NCI-H460 lung) was 8.97 µM. For the same compound, the GI50 (UACC-257 melanoma) was 6.79 µM, the TGI (UACC-257 melanoma) was 14.6 µM and the GI50 (U251 CNS) was 0.267 µM. For the same compound, the TGI (U251 CNS) was 1.05 µM, the GI50 (MDA-MB-435) was 7.23 µM and the TGI (MDA-MB-435) was 15.4 µM. The GI50 (OVCAR-8 ovarian) was 1.01 µM, the TGI (OVCAR-8 ovarian) was 4.49 µM and the GI50 (SK-MEL-5 melanoma) was 2.5 µM. It also gave a TGI (SK-MEL-5 melanoma) of 8.47 µM, a GI50 (OVCAR-4 ovarian) of 1.07 µM and a TGI (OVCAR-4 ovarian) of 2.72 µM. For the same compound, the GI50 (KM12 colon) was 2.1 µM, the TGI (KM12 colon) was 4.92 µM and the GI50 (K-562 leukemia) was 0.955 µM. The TGI (K-562 leukemia) was 2.65 µM, the GI50 (SF-268 CNS) was 1.4 µM and the TGI (SF-268 CNS) was 12.3 µM. The GI50 (A498 renal) was 6.27 µM, the TGI (A498 renal) was 13.2 µM and the GI50 (IGROV1 ovarian) was 0.306 µM. For the same compound, the TGI (IGROV1 ovarian) was 8.29 µM, the GI50 (A549 NSCLC) was 0.395 µM and the TGI (A549 NSCLC) was 1.68 µM. It also gave a GI50 (DU-145 prostate) of 0.684 µM, a TGI (DU-145 prostate) of 1.37 µM and a GI50 (RXF 393 renal) of 1.21 µM. For the same compound, the TGI (RXF 393 renal) was 4.12 µM, the GI50 (786-0 renal) was 0.716 µM and the TGI (786-0 renal) was 1.84 µM. The GI50 (UO-31 renal) was 0.351 µM, the TGI (UO-31 renal) was 3.59 µM and the GI50 (T-47D breast) was 0.271 µM. For the same compound, the TGI (T-47D breast) was 8.47 µM, the GI50 (HCC-2998 colon) was 0.0818 µM and the TGI (HCC-2998 colon) was 0.759 µM. The GI50 (MCF7 breast) was 0.0545 µM, the TGI (MCF7 breast) was 7.09 µM and the GI50 (TK-10 renal) was 7.24 µM. It also gave a TGI (TK-10 renal) of 17.1 µM, a GI50 (MOLT-4 leukemia) of 0.165 µM and a TGI (MOLT-4 leukemia) of 1.6 µM. The GI50 (HL-60(TB) leukemia) was 1.28 µM, the TGI (HL-60(TB) leukemia) was 3.38 µM and the GI50 (PC-3 prostate) was 6.1 µM. It also gave a TGI (PC-3 prostate) of 12.3 µM, a GI50 (SN12C renal) of 0.695 µM and a TGI (SN12C renal) of 6.82 µM. The GI50 (SK-MEL-2 melanoma) was 5.95 µM, the TGI (SK-MEL-2 melanoma) was 14.1 µM and the GI50 (CAKI-1 renal) was 0.658 µM. For the same compound, the TGI (CAKI-1 renal) was 9.16 µM, the GI50 (SNB-19 CNS) was 0.944 µM and the TGI (SNB-19 CNS) was 5.9 µM. For the same compound, the GI50 (MALME-3M melanoma) was 5.31 µM, the TGI (MALME-3M melanoma) was 16.4 µM and the GI50 (NCI/ADR-RES ovarian) was 0.342 µM. It also gave a TGI (NCI/ADR-RES ovarian) of 2.87 µM, a GI50 (SK-MEL-28 melanoma) of 7.25 µM and a TGI (SK-MEL-28 melanoma) of 15.3 µM. The GI50 (OVCAR-3 ovarian) was 8.42 µM, the TGI (OVCAR-3 ovarian) was 18.4 µM and the GI50 (BT-549 breast) was 1.79 µM. It also gave a TGI (BT-549 breast) of 4.49 µM, a GI50 (NCI-H226 lung) of 3.61 µM and a TGI (NCI-H226 lung) of 12.1 µM. For the same compound, the GI50 (EKVX NSCLC) was 7.75 µM, the TGI (EKVX NSCLC) was 18.3 µM and the GI50 (SK-OV-3 ovarian) was 8.81 µM. The TGI (SK-OV-3 ovarian) was 20.2 µM, the GI50 (HCT-15 colon) was 1.3 µM and the TGI (HCT-15 colon) was 3.66 µM. It also gave a GI50 (SR leukemia) of 0.0386 µM, a TGI (SR leukemia) of 0.346 µM and a GI50 (MDA-MB-231 breast) of 0.521 µM. For the same compound, the TGI (MDA-MB-231 breast) was 1.54 µM, the GI50 (RPMI-8226 leukemia) was 0.812 µM and the TGI (RPMI-8226 leukemia) was 3.52 µM.
